Source: patent publication US11542316B2, “S-Arrestin peptides and therapeutic uses thereof” (APITOPE INTERNATIONAL NV, priority 2017, dated 2023)
Ends that are not written are not given here.

What was measured:
Solubility of peptides = assay type: physicochemical
Method: The solubility of potential apitopes from S—Ag are determined by visual observations and turbidity measurement by UV spectrophotometry at 280 nm. The solubility of the peptides can be modified by adding amino acids ‘GKK’ or ‘KKK’ (or similar) on both the C- and N-terminus of the sequence. Modifications that may be suitable are described in WO2014/072958 (which is hereby incorporated by reference).
For some of these peptides, the parental peptides were insoluble, and solubility is a critical parameter for them to work as a tolerogenic peptide. Several end-terminal modifications can be used and as example used here they were improved by addition of 3 lysines before and after the original peptide sequence (labelled as ‘-KKK’ versions).

[1] = test system: LN cells and splenocytes upon SAg or peptide restimulation; test: Ex vivo tolerization experiment, DR3tg mice; assay type: in vivo; settings: IFN-γ; for reduction in response to HIP-115 and HIP-115NE3 peptides: highest concentrations of probing peptide
Method: FIG. 7: Ex vivo tolerisation protocol. Mice are injected subcutaneously in the flank with 0.1 μg/ml, 1 μg/ml and 10 μg/ml peptide on days −15, −13 and −11, followed by 3 injections of 100 μg/ml on days −8, −6 and −4 (escalating dose regime). On day 0, mice are immunized subcutaneously at the base of the tail with SAg/CFA or peptide/CFA. Mice are sacrificed 10 days after immunization to measure proliferation of LN cells and splenocytes upon SAg or peptide restimulation. LN, lymph nodes.
FIG. 8: Ex vivo tolerance induction by HIP-115NE3-KKK apitope. DR3 mice are injected subcutaneously in the flank with 0.1 μg/ml, 1 μg/ml and 10 μg/ml HIP-115NE3-KKK on days −15, −13 and −11, followed by 3 injections of 100 μg/ml on days −8, −6 and −4 (escalating dose regime). On day 0, mice are immunized subcutaneously at the base of the tail with HIP-115/CFA. Mice are sacrificed 10 days after immunization to measure proliferation of LN cells and splenocytes upon SAg or peptide restimulation. Data represent mean±SEM of the concentration or OD values for the PBS-treated mice (black lines) and peptide-treated mice (color lines). Two-way ANOVA was used to measure overall treatment effects on T cell activation and p-values are written in the graphs. Bonferonni post-hoc testing was used and significant differences are indicated in the graphs (* p<0.05; **** p<0.0001). LN, lymph nodes. (A) Tolerisation against SAg in LN. IFN-γ production expressed as IFN-γ concentration (pg/ml). (B) Tolerisation against SAg in spleen. IFN-γ production expressed as IFN-γ concentration (pg/ml). (C) Tolerisation against HIP-115 and HIP-115NE3 peptides in LN. IFN-γ production expressed as OD values. (D) Tolerisation against HIP-115 and HIP-115NE3 peptides in spleen. IFN-γ production expressed as OD values.
FIG. 9: Ex vivo tolerance induction by HIP-11B apitope. DR3 mice are injected subcutaneously in the flank with 0.1 μg/ml, 1 μg/ml and 10 μg/ml HIP-11B on days −15, −13 and −11, followed by 3 injections of 100 μg/ml on days −8, −6 and −4 (escalating dose regime). On day 0, mice are immunized subcutaneously at the base of the tail with HIP-11B/CFA. Mice are sacrificed 10 days after immunization to measure proliferation of LN cells and splenocytes upon SAg or peptide restimulation. Data represent mean±SEM of the concentration values for the PBS-treated mice (black lines) and peptide-treated mice (color lines). IFN-γ production expressed as IFN-γ concentration (pg/ml). Two-way ANOVA was used to measure overall treatment effects on T cell activation and p-values are written in the graphs. Bonferonni post-hoc testing was used and significant differences are indicated in the graphs (* p<0.05; **** p<0.0001). LN, lymph nodes. (A) Tolerisation against SAg in LN. (B) Tolerisation against SAg in spleen. (C) Tolerisation against HIP-11B peptide in LN. (D) Tolerisation against HIP-11B peptide in spleen.
FIG. 10: Ex vivo tolerance induction by HIP-24DG apitope. DR3 mice are injected subcutaneously in the flank with 0.1 μg/ml, 1 μg/ml and 10 μg/ml HIP-24DG on days −15, −13 and −11, followed by 3 injections of 100 μg/ml on days −8, −6 and −4 (escalating dose regime). On day 0, mice are immunized subcutaneously at the base of the tail with HIP-24DG+HIP-24HM/CFA. Mice are sacrificed 10 days after immunization to measure proliferation of LN cells and splenocytes upon SAg or peptide restimulation. Data represent mean±SEM of the OD values for the PBS-treated mice (black lines) and peptide-treated mice (color lines). IFN-γ production expressed as OD values. LN, lymph nodes. Two-way ANOVA was used to measure overall treatment effects on T cell activation and p-values are written in the graphs. Bonferonni post-hoc testing was used and significant differences are indicated in the graphs (* p<0.05; ** p<0.01; *** p<0.001: **** p<0.0001). LN, lymph nodes. (A) Tolerisation against SAg in LN. (B) Tolerisation against HIP-24DG in LN. (C) Tolerisation against HIP-24HM2 peptide in LN. […]

In the case of “LPLLANNRERRGIA-NH2 [HIP-24HM3, LPLLANNRERRGIA]”, the solubility (Solubility of peptides) was “soluble”.
With “KKKVIFKKISRDKSVTIYLGKKK-NH2 [HIP-115NE3-KKK]” the “reduction in response to SAg” value ([1]; LN and spleen, highest dose of SAg used for probing, escalating dose regime s.c.) was 70%, the “reduction in response to HIP-115 and HIP-115NE3 peptides” value ([1]; LN) was 55% and the “reduction in response to HIP-115 and HIP-115NE3 peptides” value ([1]; spleen) was 65%. The solubility (Solubility of peptides) was “soluble”.
In the case of “KKKAFVEQVANVVLKKK-NH2 [HIP-9K1-KKK, KKKAFVEQVANVVLKKK]”, the solubility (Solubility of peptides) was “soluble”.
For KKKLTFRRDLYFSRVQVYKKK-NH2 [HIP-17J-KKK], the “tolerization against SAg” value ([1]; spleen, DR3 mice, escalating dose regime s.c.) was “tolerization induced”.
In the case of “LTKTLTLLPLLANNRERR-NH2 [HIP-24DG, LTKTLTLLPLLANNRERR]”, the “tolerization against the peptide itself / peptides of the same region” value ([1]; LN, DR3 mice) was “some tolerization”, the “tolerization against SAg” value ([1]; LN, DR3 mice, escalating dose regime s.c.) was “tolerization induced” and the solubility (Solubility of peptides) was “soluble”.
For “VIFKKISRDKSVTIYLG-NH2 [HIP-115NE3, VIFKKISRDKSVTIYLG]”, the solubility (Solubility of peptides) was “insoluble”.
